{"source": "patent US20090305225A1", "about": "“Inhibition of Creatine Uptake to Promote Weight Loss” (priority 2005, published 2009)", "format_in_all_cases": "in vivo, rat", "key": {"[1]": {"assay": "Body weight after icv CoPP in rats", "details": "48 hours after icv injection, 6 animals per group", "description": "All animal handling was approved by and done in accordance with the guidelines and requirements of the University of Vermont Institutional Animal Care Use Committee. Adult male Sprague-Dawley rats (mycoplasma free; 200 g) were purchased from Charles River (Quebec, Canada) and housed in an air-conditioned (23+1° C.) room with lights on for 12 hours daily (starting at 6:00 a.m.) in the University of Vermont Animal Facility. Rats were housed singly in regular cages with free access to Purina Rat Chow (RMH 3000) and water for at least five days prior to surgery. Stereotactic surgery was used to implant chronic indwelling stainless steel cannulae into the third ventricle of the brain under fentanyl/droperidol anesthesia. Coordinates for cannula placement were obtained from the Konig Klippel stereotactic surgery atlas; with the nose bar 2.4 mm below the intraaural line and the vertical micrometer gantry tilted 9 degrees towards the animal, the coordinates were 4.9 mm dorsal to the intraaural line, 5 mm anterior to the intraaural line and 1.1 mm lateral to the midline. A minimum of 5 days later, animals were injected icv with CoPP (which was dissolved in 0.2 N NaOH and the pH adjusted to 7.4-7.8) or other experimental compounds. […] Because of the repetitive dosing regimens, animals were trained for six days prior to the first injection to ready them for injections without anesthesia. […]"}, "[2]": {"tested_on": "11G2L (creatine transporter mRNA)", "assay": "Northern blot of 11G2L in hypothalamic RNA", "description": "Northern Blots were used to confirm the results we obtained from the differential display. Six additional rats from each group (saline, CoPP, and fasted) were used in Northern Blot experiments. Total RNA (15 ug) extracted from the hypothalami of these rats was loaded on 1.3% formaldehyde-agarose gels. After 3.5 hours running at 56V, the gels were transferred to Hybrond-N+ membrane (Amersham, Piscataway, N.J.). The cloning inserts were released from PCR-TRAP Vectors by PCR amplification and then gel-purified with the Wizard®DNA Clean-up System (Promega). The inserts were labeled with [alpha^32P]dCTP (Perkin Elmer) using a random primers DNA labeling kit (Invitrogen, San Diego, Calif.). Labeled probe (25 ng) was denatured and then hybridized with a membrane which had been pre-incubated for 15 min in 15 ml Rapidhyb buffer (Amersham) in a Roller-Blot Hybridizer (Techne HB-3D, Cambridge, UK) for 1 hour. After washing under different stringencies, depending on the probes used, the membranes were exposed overnight to film. The autoradiographs were scanned using a GS-700 imaging densitometer (BioRad, Inc., Hercules, Calif.) and analyzed using Quantity One software (BioRad). A series of primer sets were designed using available sequences for inserts or for related mRNA cds."}, "[3]": {"tested_on": "creatine transporter (CrT) mRNA", "assay": "Real-Time PCR of creatine transporter mRNA in hypothalami of CoPP-treated rats", "details": "hypothalamus, 48 hours after icv, normalized to L32 mRNA, mean ± SEM", "description": "RNA was purified with RNAase-free DNase (Promega) at 37 degrees C. for 30 min. The first strand of cDNA was synthesized by adding 1 ug of purified RNA from each sample to 20 ul containing MMLV reverse transcriptase (Invitrogen Life Tech). Creatine transporter (CrT) gene expression was further quantatified by Real-Time PCR using sense primer: 5′[…]′ (SEQ ID NO: 1); antisense primer: 5′[…]-3′ (SEQ ID NO:2) and TaqMan probe: 5′[…]-3′ (SEQ ID NO: 3) (MMG-Biotech). The rat ribosomal protein L32 gene was used as a loading control. Each cDNA sample (1 ul) derived from the 20 ul reverse transcription reaction and 1 ul RNA template was mixed with 24 ul master mixture (Perkin Elmer) in a 96-well TaqMan plate. The PCR was run in an ABI prism 7700 thermocycler (Applied Biosystems) at 50 degrees C. for 2 min and 95 degrees C. for 10 min; this was followed by 95 degrees C. for 15 sec and 60 degrees C. for 1 min for 40 cycles. The data were analyzed using software supplied with the ABI prism 7700."}}, "data": [{"smiles": "C=Cc1c(C)c2cc3[nH]c(cc4nc(cc5nc(cc1[nH]2)C(C)=C5CCC(=O)[O-])C(CCC(=O)[O-])=C4C)c(C)c3C=C.[Co+2]", "note": "[CoPP, Cobaltic protoporphyrin IX]", "values": [{"measurement": "Δ Weight", "setting": "[1]", "result": "−29", "unit": "%"}, {"measurement": "increase of 11G2L expression compared to vehicle-treated animals (fed or fasted)", "setting": "[2]; Northern densitometry normalized to L32, p<0.02", "result": "approximately 20%"}, {"measurement": "Northern Blot Densitometry of 11G2L", "setting": "[2]; hypothalamus, 48 hours after icv, normalized to L32 mRNA", "result": "1.023±* arbitrary units"}, {"measurement": "Real-Time PCR", "setting": "[3]", "result": "0.97 ± 0.050", "unit": "arbitrary units"}]}]}
